We go through four compounds from patent US11945812B2, “Annulated 2-amino-3-cyano thiophenes and derivatives for the treatment of cancer” (Boehringer Ingelheim International GmbH, priority 2020, dated 2024).

Molecules are shown by their SMILES.

Chain of Ba/F3 cells bearing a KRAS G12C mutation (P01116 whole entry G12C, canonical isoform): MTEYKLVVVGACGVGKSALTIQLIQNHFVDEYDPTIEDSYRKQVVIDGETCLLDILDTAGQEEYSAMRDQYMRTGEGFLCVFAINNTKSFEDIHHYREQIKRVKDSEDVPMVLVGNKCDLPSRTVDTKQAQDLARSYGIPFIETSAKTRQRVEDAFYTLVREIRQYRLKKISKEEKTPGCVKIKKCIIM

For one data set, the target named is T1, KRAS G12C::SOS1 protein-protein interaction (Homo sapiens, UniProt P01116, C118S/C51S/C80L/G12C).
T1 construct: His6 (N); host or cells: E. coli
T1 sequence (P01116 1-169 isoform P01116-2 G12C/C51S/C80L/C118S): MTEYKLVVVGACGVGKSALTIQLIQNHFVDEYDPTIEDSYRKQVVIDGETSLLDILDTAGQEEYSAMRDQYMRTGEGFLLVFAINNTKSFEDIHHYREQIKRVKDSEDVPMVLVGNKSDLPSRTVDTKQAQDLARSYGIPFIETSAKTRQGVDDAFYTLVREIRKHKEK
The data set is described as follows: KRAS::SOS1 AlphaScreen binding assay. To be noted: KRAS G12C::SOS1 AlphaScreen. The source says:
KRAS::SOS1 AlphaScreen Binding Assay
Reagents: • GST-tagged SOS1 (564_1049_GST_TEV_ECO) produced in-house • GST-TEV-SOS1 (564-1049) is purchased from Viva Biotech Ltd. • The expression construct of KRAS G12C (amino acids 1-169 of reference sequence P01116-2 (uniprot), with additional mutations: C51S, C80L, and C118S) containing a C-terminal avi-tag was obtained by gene synthesis (GeneArt, Thermo Fisher) in donor vector (pDONR-221) and transferred by recombinant cloning into pDEST17 vector bearing an N-terminal His6-tag. The protein was expressed in E. coli and the purified protein was biotinylated with the E. coli biotin ligase (BirA) before usage. • GDP (Sigma Cat No G7127) • AlphaLISA Glutathione Acceptor Beads (PerkinElmer, Cat No AL109) • AlphaScreen Streptavidin Donor Beads (PerkinElmer Cat No 6760002) • Assay plates: Proxiplate-384 PLUS, white (PerkinElmer, Cat No 6008289)
Assay Buffer: • 1×PBS • 0.1% BSA • 0.05% Tween 20
7.5 nM (final assay concentration) KRAS G12C, 10 μM (final assay concentration) GDP and 5 nM (final assay concentration) GST-SOS1 are mixed in assay buffer prior to use and kept at room temperature.
AlphaLISA Glutathione Acceptor Beads and AlphaScreen Streptavidin Donor Beads are mixed in assay buffer at a concentration of 10 μg/mL (final assay concentration) each prior to use and kept at room temperature.
Compounds are diluted to a final start concentration of 100 μM and are tested in duplicate. Assay-ready plates (ARPs) are generated using an Access Labcyte Workstation with a Labcyte Echo 550 or 555 accoustic dispenser. For compound a start concentration of 100 μM, 150 nL of compound solution is transferred per well in 11 concentrations in duplicate with serial 1:5 dilutions.
The assay is run using a fully automated robotic system in a darkened room below 100 Lux. 10 μL of KRAS::SOS1 GDP mix is added into columns 1-24 to the 150 nL of compound solution (final dilution in the assay 1:100, final DMSO concentration 1%).
After 30 minutes incubation time 5 μL of bead mix is added into columns 1-23. Plates are kept at room temperature in a darkened incubator. After further 60 minutes incubation, the signal is measured using a PerkinElmer Envision HTS Multilabel Reader using the AlphaScreen specifications from PerkinElmer. Each plate contains the following controls: • diluted DMSO+KRAS::SOS1 GDP mix+bead mix • diluted DMSO+KRAS::SOS1 GDP mix
IC50 values are calculated and analyzed using a 4 parametric logistic model.
Tables of example compounds disclosed herein contain IC50 values determined using the above assay.
Background: Alpha assays give light when donor and acceptor beads are brought close together.
The term IC50 denotes the concentration needed to halve the response being measured. With `C=C(F)C(=O)N1CCN(c2cc(O[C@@H](C)[C@@H]3CCCN3C)nc(-c3cc(C4(C)CCCc5sc(N)c(C#N)c54)sn3)n2)CC1` (stereo partly shown) [Id-7], the IC50 was 5 nM.

`C=C(F)C(=O)N1CCC(Oc2cc(O[C@@H](C)[C@@H]3CCCN3C)nc(-c3cc([C@@]4(C)CCCc5sc(N)c(C#N)c54)sn3)n2)CC1` [Id-8] displayed an IC50 of 3 nM.

In the case of `COC/C=C/C(=O)N1CCN(c2cc(O[C@@H](C)[C@@H]3CCCN3C)nc(-c3cc([C@@]4(C)CCCc5sc(N)c(C#N)c54)sn3)n2)CC12CC2` [Id-9], the IC50 was found to be 21 nM.

Another data set has as its target Ba/F3 cells bearing a KRAS G12C mutation (Homo sapiens, UniProt P01116, G12C, cells depend on it). The data set is described as follows: Ba/F3 cell model proliferation assay (AlamarBlue, 72 h). It counts as cell-based. To be noted: Ba/F3 KRAS G12C cells, 72 h, 10% FCS, uncorrected; read-out: IC50 Ba/F3 KRASG12C. On the procedure: Ba/F3 Cell Model Generation and Proliferation Assay
Plasmids containing KRASG12 mutants were obtained from GeneScript. To generate KRASG12-dependent Ba/F3 models, Ba/F3 cells were transduced with retroviruses containing vectors that harbor KRASG12 isoforms. Platinum-E cells (Cell Biolabs) were used for retrovirus packaging. Retrovirus was added to Ba/F3 cells. To ensure infection, 4 μg/mL polybrene was added and cells were spinfected. […] Cells with an infection efficiency of 10% to 20% were further cultivated and puromycin selection with 1 μg/mL was initiated. As a control, parental Ba/F3 cells were used to show selection status. Selection was considered successful when parental Ba/F3 cells cultures died. To evaluate the transforming potential of KRASG12 mutations, the growth medium was no longer supplemented with IL-3. Ba/F3 cells harboring the empty vector were used as a control. Approximately ten days before conducting the experiments, puromycin was left out.
All treatments were performed in technical duplicates. The assay is run using a fully automated robotic system. Treated cells were incubated for 72 h at 37° C. with 5% CO2. AlamarBlue™ (ThermoFisher), a viability stain, was added and fluorescence measured in the PerkinElmer Envision HTS Multilabel Reader.
For orientation: Alamar Blue is a resazurin reagent that responds to reducing activity.
Regarding `C=C(F)C(=O)N1CCN(c2cc(O[C@@H](C)[C@@H]3CCCN3C)nc(-c3cc(C4(C)CCCc5sc(N)c(C#N)c54)sn3)n2)CC1` (stereo partly shown) [Id-7], the GI50 amounted to 5.4 nM.

For the compound `C=C(F)C(=O)N1CCC(Oc2cc(O[C@@H](C)[C@@H]3CCCN3C)nc(-c3cc([C@@]4(C)CCCc5sc(N)c(C#N)c54)sn3)n2)CC1` [Id-8], the GI50 is 4.3 nM.

Turning to `COC/C=C/C(=O)N1CCN(c2cc(O[C@@H](C)[C@@H]3CCCN3C)nc(-c3cc([C@@]4(C)CCCc5sc(N)c(C#N)c54)sn3)n2)CC12CC2` [Id-9], the GI50 was 44 nM.

Staying with this data set, now noted: corrected by plasma protein binding in 10% FCS (fraction unbound); read-out: IC50 Ba/F3 KRASG12C (corrected).
Take `C=C(F)C(=O)N1CCC(Oc2cc(O[C@@H](C)[C@@H]3CCCN3C)nc(-c3cc([C@@]4(C)CCCc5sc(N)c(C#N)c54)sn3)n2)CC1` [Id-8]: the GI50 worked out at 1.51 nM.

For `COC/C=C/C(=O)N1CCN(c2cc(O[C@@H](C)[C@@H]3CCCN3C)nc(-c3cc([C@@]4(C)CCCc5sc(N)c(C#N)c54)sn3)n2)CC12CC2` [Id-9], the GI50 was 14.8 nM.

System in a further data set: not listed separately
Briefly: Plasma protein binding (equilibrium dialysis), mouse plasma. It counts as in vitro ADME. Particulars: read-out: PPB mouse fu. On the procedure: (§1) Plasma Protein Binding (PPB)
(§2) Binding of test compound to plasma was determined using equilibrium dialysis (ED) and quantitative mass spectrometry interfaced with liquid chromatography (LC-MS). In brief, ED was performed with dialysis devices consisting of two chambers separated by a semipermeable membrane with a molecular weight cut-off of 5-10 kg/mol. One chamber was filled with commercially sourced plasma (mouse and human plasma, respectively) or serum (10% FCS in PBS) containing 1-10 μmol/L test compound and the other chamber was filled with phosphate-buffer saline (PBS) with or without dextran. The dialysis chamber was incubated for 3-5 hours at 37° C. After incubation, protein was precipitated from aliquots of each chamber and the concentration of test compound in the supernatant of the plasma-containing compartment (cplasma) and of the buffer-containing compartment (Cbuffer) was determined by LC-MS. The fraction of unbound test compound (not bound to plasma) (fu) was calculated according to the following equation: […]
On the technique in general: In equilibrium dialysis only unbound substance equilibrates across the membrane.
For `C=C(F)C(=O)N1CCC(Oc2cc(O[C@@H](C)[C@@H]3CCCN3C)nc(-c3cc([C@@]4(C)CCCc5sc(N)c(C#N)c54)sn3)n2)CC1` [Id-8], the fraction unbound was below 0.0009.

On to `COC/C=C/C(=O)N1CCN(c2cc(O[C@@H](C)[C@@H]3CCCN3C)nc(-c3cc([C@@]4(C)CCCc5sc(N)c(C#N)c54)sn3)n2)CC12CC2` [Id-9], for which the fraction unbound is 0.003.

`C=C(F)C(=O)N1CCN(c2nc(OC[C@@H]3CCCN3C)nc3c2CCN(c2cccc4cccc(Cl)c24)C3)C[C@@H]1CC#N` [adagrasib, reference compound]: the fraction unbound amounted to 0.004.

System in the next data set: not listed separately
Briefly: Plasma protein binding (equilibrium dialysis), human plasma. It counts as in vitro ADME. Particulars: read-out: PPB human fu. On the procedure: as §1, §2
For the compound `C=C(F)C(=O)N1CCC(Oc2cc(O[C@@H](C)[C@@H]3CCCN3C)nc(-c3cc([C@@]4(C)CCCc5sc(N)c(C#N)c54)sn3)n2)CC1` [Id-8], the fraction unbound was 0.004.

Regarding `C=C(F)C(=O)N1CCN(c2nc(OC[C@@H]3CCCN3C)nc3c2CCN(c2cccc4cccc(Cl)c24)C3)C[C@@H]1CC#N` [adagrasib, reference compound], the fraction unbound was determined as 0.014.

System in the next data set: not listed separately
Briefly: Plasma protein binding (equilibrium dialysis), serum 10% FCS in PBS. It counts as in vitro ADME. To be noted: bovine, 10% FCS in PBS (serum), read-out: PPB 10% FCS fu. On the procedure:
as §1, §2
As to `C=C(F)C(=O)N1CCC(Oc2cc(O[C@@H](C)[C@@H]3CCCN3C)nc(-c3cc([C@@]4(C)CCCc5sc(N)c(C#N)c54)sn3)n2)CC1` [Id-8], the fraction unbound was found to be 0.352.

Turning to `COC/C=C/C(=O)N1CCN(c2cc(O[C@@H](C)[C@@H]3CCCN3C)nc(-c3cc([C@@]4(C)CCCc5sc(N)c(C#N)c54)sn3)n2)CC12CC2` [Id-9], the fraction unbound was 0.336.

As to `C=C(F)C(=O)N1CCN(c2nc(OC[C@@H]3CCCN3C)nc3c2CCN(c2cccc4cccc(Cl)c24)C3)C[C@@H]1CC#N` [adagrasib, reference compound], the fraction unbound came to 0.43.

The test system of a further data set is ERK phosphorylation in NCI-H358_Cas9_SOS2. Briefly: ERK phosphorylation assay 2 (AlphaLISA SureFire Ultra p-ERK1/2), SOS2 knock-out. The format is cell-based. Particulars: Homo sapiens, NCI-H358; assay 2 (marked with *); read-out: IC50 H358 pERK. From the text:
ERK Phosphorylation Assay
Materials Used for the Assay;
Turning to `C=C(F)C(=O)N1CCN(c2cc(O[C@@H](C)[C@@H]3CCCN3C)nc(-c3cc(C4(C)CCCc5sc(N)c(C#N)c54)sn3)n2)CC1` (stereo partly shown) [Id-7], the IC50 turned out to be 20.5 nM.

Consider `C=C(F)C(=O)N1CCC(Oc2cc(O[C@@H](C)[C@@H]3CCCN3C)nc(-c3cc([C@@]4(C)CCCc5sc(N)c(C#N)c54)sn3)n2)CC1` [Id-8], for which the IC50 was 16.1 nM.

As to `COC/C=C/C(=O)N1CCN(c2cc(O[C@@H](C)[C@@H]3CCCN3C)nc(-c3cc([C@@]4(C)CCCc5sc(N)c(C#N)c54)sn3)n2)CC12CC2` [Id-9], the IC50 came to 58.9 nM.
